Data as given in ChEMBL document CHEMBL1201862, “PubChem BioAssay data set” (2004).
Active and inactive are the calls of the source.

Columns and labels:
[1] = target: Adenosylmethionine-8-amino-7-oxononanoate aminotransferase (Mycobacterium tuberculosis, UniProt P9WQ81); assay: Mycobacterium tuberculosis BioA enzyme inhibitor Measured in Biochemical System Using Plate Reader - 2163-02_Inhibitor_Dose_CherryPick_Activity.; type: functional, Mycobacterium tuberculosis UT205
Steroidogenic factor 1 = Steroidogenic factor 1 (Homo sapiens, UniProt Q13285); assay: Counterscreen for inverse agonists of the liver receptor homolog-1 (LRH-1; NR5A2): Luminescence-based cell-based high throughput dose response assay to identify inverse agonists of the Steroidogenic Factor 1 Nuclear Receptor (SF1; NR5A1).; type: functional
[2] = nonselective StAR promoter luciferase inhibitors – cell-based, luminescence, luciferase reporter, counter-screen for LRH-1 inverse agonist project, dose response (AID 651969); type: functional
[3] = target: Nuclear receptor subfamily 5 group A member 2 (Homo sapiens, UniProt O00482); type: functional, cell-based;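 note: HEK293T cells transfected with LRH-1 and a StAR promoter luciferase reporter; potency for inhibitors that lower LRH-1 driven reporter light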
[4] = NIH3T3 cell viability loss – ATP luminescence, mouse fibroblasts, counter-screen, dose response (AID 2010); type: functional, cell-based;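 note: cells exposed to compound for about 90 hours before reading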
Protein Wnt-3a = Protein Wnt-3a (Mus musculus, UniProt P27467); assay: antagonism of Wnt3a pathway luciferase reporter – Wnt-LIGHT cells, luminescence, selectivity assay for Gli-SUFU antagonist project, dose response (AID 651570); type: functional; details: read-out: IC50_Mean;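 note: Wnt-LIGHT reporter cells stimulated with conditioned medium from Wnt3a-producing cells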
[5] = Trypanosoma cruzi growth suppression in host cells – NIH3T3 host cells, beta-gal luminescence, confirmation (AID 2044); type: functional, cell-based;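 note: intracellular parasites grown in NIH/3T3 mouse fibroblasts as host cells; luminescent beta-galactosidase reporter signal from transgenic T. cruzi replicating inside host cells; inhibitors lower the luminescence signal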
cells [6] = details: HEK293
cells [7] = details: A549
Major prion protein = Major prion protein (Homo sapiens, UniProt P04156); type: functional, cell-based
cells [8] = assay: cells
[9] = target: T1, Polyadenylate-binding protein 1 (Homo sapiens, UniProt P11940); assay: MLLE binding blockers, Cy5 peptide tracer – biochemical, fluorescence polarization, Cy5-PAM2 peptide, secondary, miRNA deadenylation inhibitor project, dose response (AID 602260); type: functional; details: read-out: IC50_Mean
[10] = target: T1, Polyadenylate-binding protein 1; assay: MLLE domain peptide-binding blockers, IC50 – biochemical, fluorescence polarization, FITC-PAM2 peptide, dose response (AID 602259); type: functional; details: read-out: IC50_Mean
HEK293 [11] = assay: NOD2 signaling inhibitors in MDP-stimulated cells, cell-based, uHTS, luminescence (AID 2001); type: functional; details: Homo sapiens
HEK293 [12] = assay: cells; type: functional, cell-based; details: Homo sapiens
HEK293 [13] = assay: cells; type: functional, cell-based; details: Homo sapiens; remark: listed apart in the source
HEK293 [14] = assay: inhibition of NOD1-driven NF-kB reporter – cell-based, luminescence, uHTS, primary screen (AID 1578); type: functional; details: Homo sapiens
[15] = target: Nucleotide-binding oligomerization domain-containing protein 2 (Homo sapiens, UniProt Q9HC29); assay: inhibition of NOD2-driven NF-kB reporter – cell-based, luminescence, uHTS, HEK293 (AID 1566); type: functional
HEK293 [16] = assay: cells; type: functional, cell-based; details: Homo sapiens; remark: listed apart in the source
[17] = target: T2, Small ubiquitin-related modifier 2 (Homo sapiens, UniProt P61956); assay: SUMO2 binding disruption by SUMO1 hits – biochemical, FRET, human SUMO2, uHTS hits, selectivity assay for SUMO1 interaction inhibitor project, dose response (AID 624384); type: functional; details: read-out: IC50_Mean
[18] = target: T3, Small ubiquitin-related modifier 1 (Homo sapiens, UniProt P63165); assay: SUMO1 protein interaction blockers, potency – biochemical, fluorescence polarization, uHTS hits, dose response (AID 624382); type: functional; details: read-out: IC50_Mean
[19] = target: T2, Small ubiquitin-related modifier 2; assay: disruption of SUMO2 interaction with SIM peptide – biochemical, fluorescence polarization, uHTS hits, selectivity assay for SUMO1 interaction inhibitor project, dose response (AID 624385); type: functional; details: read-out: IC50_Mean
[20] = target: T3, Small ubiquitin-related modifier 1; assay: SUMO1 protein-protein binding blockers, potency – biochemical, FRET, dose response (AID 624383); type: functional; details: read-out: IC50_Mean

With `Cn1c(=O)c2c(nc(OCc3cccnc3)n2Cc2ccccc2)n(C)c1=O` as the molecule, how does the AC50 [1] read?
Its AC50 is 1 µM (active).

For `Cc1cc(OCC(=O)Nc2nccs2)c2c(C)cc(=O)oc2c1`, which IC50 (Steroidogenic factor 1) is on record?
The IC50 was 0.112 µM (active).

What about the IC50 [2] of the same molecule?
The IC50 was 35.9 µM (inactive).

And the IC50 [3]?
Its IC50 is 0.168 µM (active).

What does the source list for `C=C(C)CSc1nc2sc3c(c2c(=O)n1C1CCCCC1)CCN(C)C3`?
EC50 [4]: > 60 µM (not active); IC50 (Protein Wnt-3a): 13.5 µM (active); EC50 [5]: 0.403 µM (active)

For `Cc1ccc2nc3c(cc(C(N)=S)c(=N)n3CCCOC(C)C)c(=O)n2c1`, which EC50 [4] is on record?
Its EC50 is 9.45 µM (active).

What about the AC50 (cells [6]) of the same molecule?
The AC50 was > 52 µM (inactive).

And the AC50 (cells [7])?
Its AC50 is 33.9 µM (active).

And the EC50 [5]?
Its EC50 is 4.43 µM (active).

Which results are given for `O=C(CSc1nc(Cc2ccccc2)nc2ccccc12)Nc1ccc2c(c1)OCCO2`?
IC50 (Major prion protein): 5.39 µM (active); IC50 (cells [8]): 45.6 µM (inactive); IC50 [9]: > 66 µM (inactive); IC50 [10]: > 66 µM (inactive)

With `Cc1nc2cc(N3CCN(C)CC3)c(NC(=O)Cc3ccccc3)cc2c(=O)n1Cc1ccccc1` as the molecule, how does the IC50 (HEK293 [11]) read?
The IC50 was > 20 µM (inactive).

And the IC50 (HEK293 [12])?
Its IC50 is 8.5 µM (active).

What about the IC50 (HEK293 [13]) of the same molecule?
Its IC50 is > 20 µM (inactive).

And the EC50 (HEK293 [14])?
The EC50 was > 20 µM (inactive).

What about the EC50 [15] of the same molecule?
Its EC50 is 9.39 µM (active).

And the IC50 (Protein Wnt-3a)?
The IC50 was 37.5 µM (inactive).

And the IC50 (HEK293 [16])?
The IC50 was > 20 µM (inactive).

For `COc1ccc(C=NNc2ccc(S(=O)(=O)Nc3ccccc3C(=O)O)cc2[N+](=O)[O-])c(OC)c1`, which IC50 [17] is on record?
Its IC50 is 6.34 µM (active).

And the IC50 [18]?
Its IC50 is 5.26 µM (active).

What about the IC50 [19] of the same molecule?
The IC50 was 3.82 µM (active).

What about the IC50 [20] of the same molecule?
Its IC50 is 50.9 µM (inactive).
